For ten molecules, % of control and % of inhibition results are on record in ChEMBL document CHEMBL5465560, “Selectivity Literature for EUbOPEN Chemogenomic Library” (2024).

Assay [1] has as its target Serine/threonine-protein kinase mTOR (Homo sapiens, UniProt P42345). Nature of the assay: Selectivity interaction (Kinase panel (Z-LYTE Assay)) EUB0001632a MTOR. As to conditions: at 10 µM.
Assay [2] concerns the target cGMP-inhibited 3',5'-cyclic phosphodiesterase 3A (Homo sapiens, UniProt Q14432). Nature of the assay: Selectivity interaction (Panel of non-epigenetic targets (kinases, GPCRs, ion channels, and transporters, Eurofins) ) EUB0000271b PDE3A. The following applies: at 1 µM.
For assay [3], the target named is Dual specificity protein kinase CLK2 (Homo sapiens, UniProt P49760). Nature of the assay: Selectivity interaction (KinomeScan (DiscoverX)) EUB0000607a CLK2. The following applies: at 10 µM.
Chain of Dual specificity protein kinase CLK2 (P49760 whole entry, looked up): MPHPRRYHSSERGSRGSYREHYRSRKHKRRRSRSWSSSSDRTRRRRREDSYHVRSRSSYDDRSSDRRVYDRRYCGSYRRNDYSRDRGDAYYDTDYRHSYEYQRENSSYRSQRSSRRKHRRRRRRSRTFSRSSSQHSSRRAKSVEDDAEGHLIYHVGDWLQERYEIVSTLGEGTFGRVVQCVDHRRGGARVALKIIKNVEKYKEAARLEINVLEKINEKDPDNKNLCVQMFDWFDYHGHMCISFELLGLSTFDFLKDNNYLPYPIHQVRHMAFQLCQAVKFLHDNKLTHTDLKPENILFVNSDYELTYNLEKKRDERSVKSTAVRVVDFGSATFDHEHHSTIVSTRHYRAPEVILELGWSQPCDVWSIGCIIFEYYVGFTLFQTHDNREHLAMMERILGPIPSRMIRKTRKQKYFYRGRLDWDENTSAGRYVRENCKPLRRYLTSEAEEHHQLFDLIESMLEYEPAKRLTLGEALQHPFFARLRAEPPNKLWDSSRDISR
The target of assay [4] is T1, Testis-specific serine/threonine-protein kinase 3 (Homo sapiens) (UniProt Q96PN8).
T1 sequence (whole entry): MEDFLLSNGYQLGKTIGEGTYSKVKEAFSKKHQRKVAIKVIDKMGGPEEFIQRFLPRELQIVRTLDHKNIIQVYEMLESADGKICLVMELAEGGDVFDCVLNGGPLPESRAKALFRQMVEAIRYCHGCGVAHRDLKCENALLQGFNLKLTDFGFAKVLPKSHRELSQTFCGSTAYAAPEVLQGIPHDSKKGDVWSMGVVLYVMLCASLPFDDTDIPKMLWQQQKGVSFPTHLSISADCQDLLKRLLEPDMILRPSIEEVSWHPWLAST
Kind of assay: Selectivity interaction (SelectScreen profiling (Invitrogen)) EUB0000607a TSSK3. The following applies: at 2 µM.

Assay [5] concerns the target T2, Serine/threonine-protein kinase Nek1 (Homo sapiens) (UniProt Q96PY6).
T2 sequence (whole entry): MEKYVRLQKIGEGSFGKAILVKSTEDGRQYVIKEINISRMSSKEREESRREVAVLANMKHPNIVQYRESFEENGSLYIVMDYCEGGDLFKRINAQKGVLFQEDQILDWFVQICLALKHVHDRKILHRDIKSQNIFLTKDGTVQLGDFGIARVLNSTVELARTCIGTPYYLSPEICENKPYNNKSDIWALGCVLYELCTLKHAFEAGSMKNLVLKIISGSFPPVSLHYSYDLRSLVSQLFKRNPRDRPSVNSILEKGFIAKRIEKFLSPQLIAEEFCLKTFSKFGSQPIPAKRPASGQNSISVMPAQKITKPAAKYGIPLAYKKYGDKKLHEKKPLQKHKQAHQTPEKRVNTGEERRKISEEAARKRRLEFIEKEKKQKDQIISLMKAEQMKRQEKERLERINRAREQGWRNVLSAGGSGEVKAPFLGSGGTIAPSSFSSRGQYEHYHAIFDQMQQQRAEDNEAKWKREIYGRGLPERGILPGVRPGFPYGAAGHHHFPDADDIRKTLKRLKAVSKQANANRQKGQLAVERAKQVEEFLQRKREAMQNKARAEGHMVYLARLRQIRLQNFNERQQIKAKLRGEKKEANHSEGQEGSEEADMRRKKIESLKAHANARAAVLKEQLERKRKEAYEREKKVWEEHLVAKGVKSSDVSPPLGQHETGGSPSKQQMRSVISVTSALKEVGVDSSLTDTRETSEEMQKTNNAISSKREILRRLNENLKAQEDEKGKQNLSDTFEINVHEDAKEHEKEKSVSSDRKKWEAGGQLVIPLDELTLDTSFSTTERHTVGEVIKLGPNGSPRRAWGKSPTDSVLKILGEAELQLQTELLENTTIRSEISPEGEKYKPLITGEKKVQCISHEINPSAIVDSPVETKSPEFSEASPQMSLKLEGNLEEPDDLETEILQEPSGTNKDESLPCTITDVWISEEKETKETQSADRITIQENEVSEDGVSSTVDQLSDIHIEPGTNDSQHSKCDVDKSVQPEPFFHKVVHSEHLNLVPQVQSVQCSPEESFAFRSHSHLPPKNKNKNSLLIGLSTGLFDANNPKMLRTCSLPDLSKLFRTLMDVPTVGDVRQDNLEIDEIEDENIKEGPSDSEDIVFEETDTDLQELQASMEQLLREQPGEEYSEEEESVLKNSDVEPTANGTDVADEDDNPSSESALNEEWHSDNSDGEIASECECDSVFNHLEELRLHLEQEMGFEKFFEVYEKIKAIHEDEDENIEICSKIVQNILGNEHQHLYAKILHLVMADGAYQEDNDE
Nature of the assay: Selectivity interaction (KinomeScan (DiscoverX)) EUB0000666a NEK1. The following applies: at 10 µM.

Assay [6] addresses Hepatocyte growth factor-like protein (Homo sapiens) (UniProt P26927). Nature of the assay: Selectivity interaction (KinomeScan (DiscoverX)) EUB0000655a MST1. As to conditions: at 10 µM.
The target of assay [7] is T3, Dual specificity mitogen-activated protein kinase kinase 3 (Homo sapiens) (UniProt P46734).
T3 sequence (whole entry): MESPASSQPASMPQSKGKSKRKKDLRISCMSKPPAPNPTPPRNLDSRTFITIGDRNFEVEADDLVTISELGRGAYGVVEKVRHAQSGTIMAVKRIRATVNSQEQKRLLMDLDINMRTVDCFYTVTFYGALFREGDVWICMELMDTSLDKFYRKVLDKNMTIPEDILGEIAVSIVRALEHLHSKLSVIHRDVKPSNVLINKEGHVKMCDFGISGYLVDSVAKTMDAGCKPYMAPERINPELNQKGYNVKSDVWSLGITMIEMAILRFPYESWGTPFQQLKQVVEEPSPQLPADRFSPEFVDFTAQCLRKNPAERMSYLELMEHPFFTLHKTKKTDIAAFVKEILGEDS
Kind of assay: Selectivity interaction (KinomeScan (DiscoverX)) EUB0001619a MAP2K3. The following applies: at 1 µM.

Assay [8] has as its target 5'-AMP-activated protein kinase catalytic subunit alpha-1 (Homo sapiens, UniProt Q13131). Kind of assay: Selectivity interaction (ActivX KiNativ screen (kinase selectivity in THP-1 cell lysates)) EUB0000639a PRKAA1. Type of assay: subcellular. The following applies: lysate, at 1 µM.
Assay [9] has as its target Cyclin-dependent kinase 11B (Homo sapiens) (UniProt P21127). Kind of assay: Selectivity interaction (KinomeScan (DiscoverX)) EUB0001049a CDK11B. As to conditions: at 1 µM.
Assay [10] has as its target T4, Serine/threonine-protein kinase STK11 (Homo sapiens) (UniProt Q15831).
T4 sequence (whole entry): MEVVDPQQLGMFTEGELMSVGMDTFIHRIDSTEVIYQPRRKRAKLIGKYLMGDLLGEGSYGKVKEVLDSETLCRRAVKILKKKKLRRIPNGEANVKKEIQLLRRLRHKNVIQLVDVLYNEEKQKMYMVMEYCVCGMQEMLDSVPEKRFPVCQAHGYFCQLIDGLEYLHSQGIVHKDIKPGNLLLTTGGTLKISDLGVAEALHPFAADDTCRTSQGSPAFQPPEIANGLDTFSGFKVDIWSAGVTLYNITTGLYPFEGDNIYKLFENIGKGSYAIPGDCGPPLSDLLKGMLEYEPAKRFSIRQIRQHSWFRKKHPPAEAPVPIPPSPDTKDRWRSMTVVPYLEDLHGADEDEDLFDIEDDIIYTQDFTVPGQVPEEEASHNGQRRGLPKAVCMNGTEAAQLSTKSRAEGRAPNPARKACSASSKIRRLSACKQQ
Kind of assay: Selectivity interaction (KinomeScan (DiscoverX)) EUB0000618a STK11. As to conditions: at 10 µM.

The target of assay [11] is Serine/threonine-protein kinase PAK 6 (Homo sapiens) (UniProt Q9NQU5). Nature of the assay: Selectivity interaction (Upstate Kinase Profiler service (Millipore)) EUB0000056c PAK6. As to conditions: at 1 µM.
Chain of Serine/threonine-protein kinase PAK 6 (Homo sapiens) (Q9NQU5 whole entry, looked up): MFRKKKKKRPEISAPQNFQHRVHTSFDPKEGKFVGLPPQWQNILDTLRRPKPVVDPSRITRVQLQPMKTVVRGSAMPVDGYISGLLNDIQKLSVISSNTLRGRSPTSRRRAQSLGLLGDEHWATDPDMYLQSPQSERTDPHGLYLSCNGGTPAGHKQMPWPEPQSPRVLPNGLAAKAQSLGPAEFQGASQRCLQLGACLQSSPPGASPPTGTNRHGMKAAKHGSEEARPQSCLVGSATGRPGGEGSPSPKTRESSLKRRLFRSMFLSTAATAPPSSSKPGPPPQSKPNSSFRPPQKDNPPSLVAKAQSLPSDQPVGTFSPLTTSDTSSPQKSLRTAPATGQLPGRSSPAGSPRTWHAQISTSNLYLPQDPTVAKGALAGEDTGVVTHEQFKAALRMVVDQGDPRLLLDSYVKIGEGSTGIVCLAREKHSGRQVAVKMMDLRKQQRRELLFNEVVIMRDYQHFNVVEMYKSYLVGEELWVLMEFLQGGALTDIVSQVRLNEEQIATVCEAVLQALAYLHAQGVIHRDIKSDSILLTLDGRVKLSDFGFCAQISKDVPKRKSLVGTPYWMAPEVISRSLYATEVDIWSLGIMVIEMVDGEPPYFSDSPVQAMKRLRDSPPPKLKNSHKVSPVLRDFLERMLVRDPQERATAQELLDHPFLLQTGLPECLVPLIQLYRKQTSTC

Molecules are shown by their SMILES.

Chain of cGMP-inhibited 3',5'-cyclic phosphodiesterase 3A (Q14432 whole entry): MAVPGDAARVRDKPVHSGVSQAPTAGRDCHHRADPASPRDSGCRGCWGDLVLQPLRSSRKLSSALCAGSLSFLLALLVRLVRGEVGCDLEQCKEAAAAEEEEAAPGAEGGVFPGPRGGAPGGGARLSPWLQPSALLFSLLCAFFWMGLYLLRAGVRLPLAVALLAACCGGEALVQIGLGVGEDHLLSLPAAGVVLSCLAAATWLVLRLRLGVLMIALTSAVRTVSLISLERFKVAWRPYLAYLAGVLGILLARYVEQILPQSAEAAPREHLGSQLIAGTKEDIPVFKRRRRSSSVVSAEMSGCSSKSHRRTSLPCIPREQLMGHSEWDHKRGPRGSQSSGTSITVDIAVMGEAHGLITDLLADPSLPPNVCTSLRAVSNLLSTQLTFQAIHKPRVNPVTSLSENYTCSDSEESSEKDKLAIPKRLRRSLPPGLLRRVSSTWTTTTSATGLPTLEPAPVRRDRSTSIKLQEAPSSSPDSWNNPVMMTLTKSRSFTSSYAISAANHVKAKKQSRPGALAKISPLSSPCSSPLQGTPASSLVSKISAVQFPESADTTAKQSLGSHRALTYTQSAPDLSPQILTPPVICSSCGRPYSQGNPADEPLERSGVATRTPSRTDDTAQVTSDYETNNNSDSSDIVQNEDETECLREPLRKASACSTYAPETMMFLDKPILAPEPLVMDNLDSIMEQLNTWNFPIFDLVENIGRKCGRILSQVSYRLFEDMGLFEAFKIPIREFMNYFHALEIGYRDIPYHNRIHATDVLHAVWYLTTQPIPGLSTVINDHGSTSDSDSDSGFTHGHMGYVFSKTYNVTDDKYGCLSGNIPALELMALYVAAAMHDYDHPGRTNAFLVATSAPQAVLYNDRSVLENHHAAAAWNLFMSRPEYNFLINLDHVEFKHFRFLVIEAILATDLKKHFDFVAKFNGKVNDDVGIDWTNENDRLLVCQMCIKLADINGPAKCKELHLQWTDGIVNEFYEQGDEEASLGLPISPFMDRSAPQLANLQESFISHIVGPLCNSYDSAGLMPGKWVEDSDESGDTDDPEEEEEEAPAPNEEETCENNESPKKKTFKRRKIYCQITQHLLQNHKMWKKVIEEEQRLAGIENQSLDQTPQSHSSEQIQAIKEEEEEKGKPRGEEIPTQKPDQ
Chain of 5'-AMP-activated protein kinase catalytic subunit alpha-1 (Q13131 whole entry, looked up): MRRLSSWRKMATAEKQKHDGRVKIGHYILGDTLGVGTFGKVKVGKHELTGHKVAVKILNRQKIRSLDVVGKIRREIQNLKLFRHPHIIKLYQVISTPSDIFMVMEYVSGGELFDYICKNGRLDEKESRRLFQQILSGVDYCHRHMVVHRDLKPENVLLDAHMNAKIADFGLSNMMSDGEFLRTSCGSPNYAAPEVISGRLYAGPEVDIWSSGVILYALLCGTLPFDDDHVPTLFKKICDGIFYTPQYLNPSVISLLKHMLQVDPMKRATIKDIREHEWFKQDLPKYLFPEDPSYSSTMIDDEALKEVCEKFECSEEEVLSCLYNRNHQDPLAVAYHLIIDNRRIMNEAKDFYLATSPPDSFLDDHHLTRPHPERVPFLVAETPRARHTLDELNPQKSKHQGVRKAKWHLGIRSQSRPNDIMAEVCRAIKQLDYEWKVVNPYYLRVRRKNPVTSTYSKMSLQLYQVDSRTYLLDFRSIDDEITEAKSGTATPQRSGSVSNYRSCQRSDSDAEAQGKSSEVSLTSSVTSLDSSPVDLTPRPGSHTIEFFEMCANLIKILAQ
Chain of Cyclin-dependent kinase 11B (Homo sapiens) (P21127 whole entry): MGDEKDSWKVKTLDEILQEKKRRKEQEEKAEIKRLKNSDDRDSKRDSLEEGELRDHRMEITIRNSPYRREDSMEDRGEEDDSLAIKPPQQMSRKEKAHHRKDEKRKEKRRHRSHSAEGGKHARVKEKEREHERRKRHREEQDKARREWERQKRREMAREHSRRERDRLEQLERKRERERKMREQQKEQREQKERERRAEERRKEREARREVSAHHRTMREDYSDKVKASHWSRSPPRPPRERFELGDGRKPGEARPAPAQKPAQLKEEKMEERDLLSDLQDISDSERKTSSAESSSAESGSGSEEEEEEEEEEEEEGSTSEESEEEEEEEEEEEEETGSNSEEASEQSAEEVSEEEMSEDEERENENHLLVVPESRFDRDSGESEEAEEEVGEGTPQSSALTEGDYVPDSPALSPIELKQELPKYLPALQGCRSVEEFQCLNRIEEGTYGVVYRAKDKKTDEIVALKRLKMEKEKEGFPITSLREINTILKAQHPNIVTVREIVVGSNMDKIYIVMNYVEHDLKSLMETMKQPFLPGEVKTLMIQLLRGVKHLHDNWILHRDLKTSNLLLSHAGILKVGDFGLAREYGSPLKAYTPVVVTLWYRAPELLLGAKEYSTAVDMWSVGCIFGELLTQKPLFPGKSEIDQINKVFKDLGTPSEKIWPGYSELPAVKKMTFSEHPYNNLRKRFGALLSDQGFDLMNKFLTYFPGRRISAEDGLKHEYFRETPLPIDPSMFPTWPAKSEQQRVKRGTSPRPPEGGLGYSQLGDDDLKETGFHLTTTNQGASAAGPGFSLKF

The molecule `Cn1cc(-n2cnc3c(NCc4nc5cc(Cl)c(Cl)cc5[nH]4)nc(N4CCOCC4)nc32)cn1` returned a % of control in [1] of 7.22%.
On to `Cc1cc(C)cc([C@@H]2c3cc(C)ccc3NC(=O)CN2C(=O)c2ccc(Br)s2)c1`, for which the % of inhibition in [2] was -11%.
With `CNC(=O)Nc1ccc(-c2nc(N3CC4CCC(C3)O4)c3cnn(C4CCC5(CC4)OCCO5)c3n2)cc1`, in assay [3], the % of control came to 98%. Also, the % of inhibition in [4] came out at 3%.
For the molecule `O=C(NOC[C@H](O)CO)c1ccc(F)c(F)c1Nc1ccc(I)cc1F`, the % of control in [5] was 98%.
On to `CN(C)CCOc1ccc(-c2nc(-c3ccncc3)c(-c3ccc4c(c3)CC/C4=N\O)[nH]2)cc1`, for which, in assay [6], the % of control is 100%.
In assay [7], `N#Cc1cccc(-c2c[nH]c3ncnc(N4CCOCC4)c23)c1` showed a % of control of 71%.
For `CC[C@@H]1[C@H](F)C(=O)N[C@@H]1COc1nccc2cc(C(N)=O)c(OC)cc12` [ZIMLOVISERTIB], the % of inhibition in [8] was -4.6%.
On to `COc1cc(Nc2nc(C)cc(-c3cnn4nc(OC)ccc34)n2)cc(C(F)(F)F)c1`, for which the % of control in assay [9] was 100%.
With `O[C@H]1CC[C@H](Nc2ncc3nc(Nc4c(F)cc(F)cc4F)n([C@H]4CCOC4)c3n2)CC1`, the % of control in [10] is 100%.
For `Cc1ccc(-c2ccc3c(ccc4sc5c(c43)NC[C@@H](C)NC5=O)n2)cn1`, in assay [11], the % of inhibition came out at 9%.
